Laboratory results: ChEMBL document CHEMBL1201862, “PubChem BioAssay data set” (2004)
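Following 48 hours of exposure in 96-well plates, responses at five concentrations were used to interpolate endpoints linearly. Abbreviation: GI50, concentration required for 50% inhibition of growth.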 The source made the active and inactive calls. No stated cut-off is given here; in the data, active = GI50 up to about 1.1 µM and inactive = higher.

Key:
Assay in all cases: growth of human tumour cells (NCI), 48 h
SF-268 = tested on: SF-268
UO-31 = tested on: UO-31
M19-MEL = tested on: M19-MEL
U-251 = tested on: U-251
SN12C = tested on: SN12C
NCI-H460 = tested on: NCI-H460
COLO 205 = tested on: COLO 205
K562 = tested on: K562
UACC-62 = tested on: UACC-62
LOX IMVI = tested on: LOX IMVI
SK-MEL-28 = tested on: SK-MEL-28
SNB-19 = tested on: SNB-19
HCC 2998 = tested on: HCC 2998
XF498 = tested on: XF498
CCRF-CEM = tested on: CCRF-CEM
ACHN = tested on: ACHN
KM-20L2 = tested on: KM-20L2
DLD-1 = tested on: DLD-1
DMS-114 = tested on: DMS-114
RPMI-8226 = tested on: RPMI-8226
SR = tested on: SR
OVCAR-3 = tested on: OVCAR-3
HL-60 = tested on: HL-60
HCT-15 = tested on: HCT-15
HCT-116 = tested on: HCT-116
SW-620 = tested on: SW-620
HT-29 = tested on: HT-29
LXFL 529 = tested on: LXFL 529
IGROV-1 = tested on: IGROV-1
A549 = tested on: A549
OVCAR-8 = tested on: OVCAR-8
HOP-92 = tested on: HOP-92
KM12 = tested on: KM12
NCI-H522 = tested on: NCI-H522
SK-MEL-5 = tested on: SK-MEL-5
NCI-H226 = tested on: NCI-H226
OVCAR-5 = tested on: OVCAR-5
M14 = tested on: M14
786-0 = tested on: 786-0
OVCAR-4 = tested on: OVCAR-4
SF-539 = tested on: SF-539
HOP-62 = tested on: HOP-62
MOLT-4 = tested on: MOLT-4
DMS-273 = tested on: DMS-273
SK-OV-3 = tested on: SK-OV-3
SK-MEL-2 = tested on: SK-MEL-2
Malme-3M = tested on: Malme-3M
UACC-257 = tested on: UACC-257
CAKI-1 = tested on: CAKI-1
SNB-75 = tested on: SNB-75
NCI-H23 = tested on: NCI-H23
EKVX = tested on: EKVX
A498 = tested on: A498
SF-295 = tested on: SF-295
TK-10 = tested on: TK-10

C=C(C)C1CCC2(C)CC1c1c(c(C)cc3c1[nH]c1ccccc13)O2 (configuration not stated)
GI50 (SF-268): > 25 µM (inactive) | GI50 (UO-31): 12.6 µM (inactive) | GI50 (M19-MEL): > 25 µM (inactive) | GI50 (U-251): > 25 µM (inactive) | GI50 (SN12C): > 25 µM (inactive) | GI50 (NCI-H460): > 25 µM (inactive) | GI50 (COLO 205): > 25 µM (inactive) | GI50 (K562): 12 µM (inactive) | GI50 (UACC-62): > 25 µM (inactive) | GI50 (LOX IMVI): > 25 µM (inactive) | GI50 (SK-MEL-28): > 25 µM (inactive) | GI50 (SNB-19): > 25 µM (inactive) | GI50 (HCC 2998): > 25 µM (inactive) | GI50 (XF498): > 25 µM (inactive) | GI50 (CCRF-CEM): 24.3 µM (inactive) | GI50 (ACHN): > 25 µM (inactive) | GI50 (KM-20L2): > 25 µM (inactive) | GI50 (DLD-1): > 25 µM (inactive) | GI50 (DMS-114): > 25 µM (inactive) | GI50 (RPMI-8226): > 25 µM (inactive) | GI50 (SR): > 25 µM (inactive) | GI50 (OVCAR-3): > 25 µM (inactive) | GI50 (HL-60): 11.9 µM (inactive) | GI50 (HCT-15): > 25 µM | GI50 (HCT-116): > 25 µM (inactive) | GI50 (SW-620): > 25 µM (inactive) | GI50 (HT-29): > 25 µM (inactive) | GI50 (LXFL 529): > 25 µM (inactive) | GI50 (IGROV-1): > 25 µM (inactive) | GI50 (A549): > 25 µM (inactive) | GI50 (OVCAR-8): > 25 µM (inactive) | GI50 (HOP-92): > 25 µM (inactive) | GI50 (KM12): > 25 µM (inactive) | GI50 (NCI-H522): 15 µM (inactive) | GI50 (SK-MEL-5): > 25 µM (inactive) | GI50 (NCI-H226): 16.7 µM (inactive) | GI50 (OVCAR-5): > 25 µM (inactive) | GI50 (M14): > 25 µM (inactive) | GI50 (786-0): > 25 µM (inactive) | GI50 (OVCAR-4): 11.7 µM (inactive) | GI50 (SF-539): > 25 µM (inactive) | GI50 (HOP-62): 19 µM (inactive) | GI50 (MOLT-4): 17.5 µM (inactive) | GI50 (DMS-273): > 25 µM (inactive) | GI50 (SK-OV-3): > 25 µM (inactive) | GI50 (SK-MEL-2): > 25 µM (inactive) | GI50 (Malme-3M): > 25 µM (inactive)

COc1ccc(/C=C(\NC(=O)c2ccccc2)c2nc3ccccc3[nH]2)cc1
GI50 (SF-268): 37 µM (inactive) | GI50 (UACC-257): 23.8 µM (inactive) | GI50 (UO-31): 22.4 µM (inactive) | GI50 (CAKI-1): 36.9 µM (inactive) | GI50 (M19-MEL): 35.6 µM (inactive) | GI50 (SNB-75): 29.4 µM (inactive) | GI50 (NCI-H23): 19.1 µM (inactive) | GI50 (U-251): 30.3 µM (inactive) | GI50 (SN12C): 41.3 µM (inactive) | GI50 (NCI-H460): 34.2 µM (inactive) | GI50 (COLO 205): 24 µM (inactive) | GI50 (K562): 34.9 µM (inactive) | GI50 (UACC-62): 24 µM (inactive) | GI50 (SK-MEL-28): 14.6 µM (inactive) | GI50 (SNB-19): 37.3 µM (inactive) | GI50 (HCC 2998): 41.9 µM (inactive) | GI50 (XF498): 18.5 µM (inactive) | GI50 (CCRF-CEM): 42.4 µM (inactive) | GI50 (ACHN): 42.6 µM (inactive) | GI50 (KM-20L2): 38.5 µM (inactive) | GI50 (DLD-1): 33.6 µM (inactive) | GI50 (DMS-114): 24.8 µM (inactive) | GI50 (RPMI-8226): 18.9 µM (inactive) | GI50 (SR): 28.1 µM (inactive) | GI50 (OVCAR-3): 34.5 µM (inactive) | GI50 (HCT-15): 48.2 µM | GI50 (HCT-116): 35.2 µM (inactive) | GI50 (SW-620): 46.6 µM (inactive) | GI50 (HT-29): 36.4 µM (inactive) | GI50 (LXFL 529): 27.4 µM (inactive) | GI50 (IGROV-1): 30.5 µM (inactive) | GI50 (A549): 41.6 µM (inactive) | GI50 (OVCAR-8): 39.3 µM (inactive) | GI50 (HOP-92): 26.9 µM (inactive) | GI50 (KM12): 39.6 µM (inactive) | GI50 (NCI-H522): 24.7 µM (inactive) | GI50 (SK-MEL-5): 14.8 µM (inactive) | GI50 (NCI-H226): 72.9 µM (inactive) | GI50 (EKVX): 35.9 µM (inactive) | GI50 (OVCAR-5): 29 µM (inactive) | GI50 (M14): 33.4 µM (inactive) | GI50 (786-0): 44 µM (inactive) | GI50 (OVCAR-4): 17.3 µM (inactive) | GI50 (A498): > 100 µM (inactive) | GI50 (SF-539): 39.1 µM (inactive) | GI50 (HOP-62): 46.2 µM (inactive) | GI50 (MOLT-4): 24.5 µM (inactive) | GI50 (DMS-273): 29.5 µM (inactive) | GI50 (SK-OV-3): 45.1 µM (inactive) | GI50 (SK-MEL-2): 21.1 µM (inactive) | GI50 (Malme-3M): 36.3 µM (inactive)

Cc1cc2c(=O)cc(-c3cccs3)oc2c(C(=O)O)c1C
GI50 (SF-268): 34.2 µM (inactive) | GI50 (UACC-257): > 100 µM (inactive) | GI50 (UO-31): > 100 µM (inactive) | GI50 (M19-MEL): > 100 µM (inactive) | GI50 (SNB-75): 1.56 µM (inactive) | GI50 (NCI-H23): > 100 µM (inactive) | GI50 (U-251): > 100 µM (inactive) | GI50 (SN12C): > 100 µM (inactive) | GI50 (NCI-H460): > 100 µM (inactive) | GI50 (COLO 205): > 100 µM (inactive) | GI50 (K562): 35.8 µM (inactive) | GI50 (UACC-62): > 100 µM (inactive) | GI50 (LOX IMVI): > 100 µM (inactive) | GI50 (SK-MEL-28): > 100 µM (inactive) | GI50 (SNB-19): > 100 µM (inactive) | GI50 (HCC 2998): > 100 µM (inactive) | GI50 (CCRF-CEM): 64.7 µM (inactive) | GI50 (ACHN): > 100 µM (inactive) | GI50 (KM-20L2): > 100 µM (inactive) | GI50 (DLD-1): > 100 µM (inactive) | GI50 (RPMI-8226): 59.3 µM (inactive) | GI50 (OVCAR-3): > 100 µM (inactive) | GI50 (HCT-15): 42.8 µM | GI50 (HCT-116): > 100 µM (inactive) | GI50 (SW-620): > 100 µM (inactive) | GI50 (HT-29): > 100 µM (inactive) | GI50 (LXFL 529): 49.4 µM (inactive) | GI50 (SF-295): > 100 µM (inactive) | GI50 (TK-10): > 100 µM (inactive) | GI50 (IGROV-1): > 100 µM (inactive) | GI50 (A549): > 100 µM (inactive) | GI50 (OVCAR-8): > 100 µM (inactive) | GI50 (HOP-92): > 100 µM (inactive) | GI50 (KM12): 97.7 µM (inactive) | GI50 (NCI-H522): 21.2 µM (inactive) | GI50 (SK-MEL-5): > 100 µM (inactive) | GI50 (EKVX): > 100 µM (inactive) | GI50 (OVCAR-5): > 100 µM (inactive) | GI50 (M14): > 100 µM (inactive) | GI50 (786-0): > 100 µM (inactive) | GI50 (OVCAR-4): > 100 µM (inactive) | GI50 (A498): > 100 µM (inactive) | GI50 (SF-539): > 10 µM (inactive) | GI50 (HOP-62): > 100 µM (inactive) | GI50 (MOLT-4): > 100 µM (inactive) | GI50 (DMS-273): > 100 µM (inactive) | GI50 (SK-OV-3): > 100 µM (inactive) | GI50 (SK-MEL-2): > 100 µM (inactive) | GI50 (Malme-3M): > 100 µM (inactive)
